Holding throughout (type): cell-based
In one assay the test system is LNCaP. The assay can be described thus: Cell growth inhibition assay, prostate cancer cell line LNCaP (medium with 10 ng/mL IL-6). Particulars: Homo sapiens, medium supplemented with 10 ng/mL of IL-6, 10,000 cells/well.
Another assay deals with MDA-MB-231. The assay can be described thus: Cell growth inhibition assay, breast cancer cell line MDA-MB-231. To be noted: Homo sapiens; MDA-MB-231 breast cancer cell line, 5,000 cells/well. As to the method: The inhibitory effects of the compounds of the present invention against the growth of cancer cells were evaluated as shown below. The cancer cell lines including stomach cancer cell line (AGS), breast cancer cell lines (MDA-MB-231, MDA-MB-468, and BT-549), prostate cancer cell lines (LNCaP and DU-145), colon cancer cell line (HCT116), ovarian cancer cell line (SW626), liver cancer cell line (Hep3B), kidney cancer cell line (ACHN), lung cancer cell line (NCI-H23) and blood cancer cell lines (HEL92.1.7 and U266) were cultured under the protocol provided by each supplier. A medium supplemented with 10 ng/mL of IL-6 was used for LNCaP, a prostate cancer cell line, when treated with a drug. Each type of cells to be used in experiments were sub-cultured in a 96-well plate by counting the exact number of cells using Tali™ Image-based Cytometer (Life Technologies). In a 96-well plate, AGS, HCT116, and DU-145 were employed with 3,000 cells/well; NCI-H23, SW626, Hep3B, ACHN, BT-549, MDA-MB-231, HEL92.1.7, and U266 were employed with 5,000 cells/well; and LNCaP and MDA-MB-468 were employed with 10,000 cells/well. The cells were treated with the compounds listed in Examples which were diluted in various concentrations. Upon completion of the compounds treatment, AGS, HCT116, SW626, DU145, NCI-H23, Hep3B, ACHN, BT-549, LNCaP, HEL92.1.7, and U266 cells were cultured at 37° C. under 5% CO2 for from 72 to 96 hours, and MDA-MB-231 and MDA-MB-468 cells were cultured at 37° C. in air for from 72 to 96 hours. Subsequently, the cells were observed under microscope and drug precipitation and particular findings were investigated and recorded. And then, the 96-well plate was placed at room temperature for 30 minutes, added with 20 μL/well of CellTiter-Glo solution (Cat No. G7573, Promega) and shaken for 10 minutes, followed by being subjected to the measurement using PHERAstar™ microplate reader (BMG LABTECH) according to the supplier's general luminometer protocol. Wells where only culture liquid added without cell plating were used as a negative control, whereas wells where culture liquid containing 0.1% DMSO instead of the compounds listed in Examples were used as a positive control.

For the next assay, the target named is T1, STAT3 (Homo sapiens, UniProt P40763).
T1 construct: plasmid pSTAT3-TA-luc), which contains a stably operating STAT3 promoter; endogenous in cells
T1 sequence (P40763 whole entry): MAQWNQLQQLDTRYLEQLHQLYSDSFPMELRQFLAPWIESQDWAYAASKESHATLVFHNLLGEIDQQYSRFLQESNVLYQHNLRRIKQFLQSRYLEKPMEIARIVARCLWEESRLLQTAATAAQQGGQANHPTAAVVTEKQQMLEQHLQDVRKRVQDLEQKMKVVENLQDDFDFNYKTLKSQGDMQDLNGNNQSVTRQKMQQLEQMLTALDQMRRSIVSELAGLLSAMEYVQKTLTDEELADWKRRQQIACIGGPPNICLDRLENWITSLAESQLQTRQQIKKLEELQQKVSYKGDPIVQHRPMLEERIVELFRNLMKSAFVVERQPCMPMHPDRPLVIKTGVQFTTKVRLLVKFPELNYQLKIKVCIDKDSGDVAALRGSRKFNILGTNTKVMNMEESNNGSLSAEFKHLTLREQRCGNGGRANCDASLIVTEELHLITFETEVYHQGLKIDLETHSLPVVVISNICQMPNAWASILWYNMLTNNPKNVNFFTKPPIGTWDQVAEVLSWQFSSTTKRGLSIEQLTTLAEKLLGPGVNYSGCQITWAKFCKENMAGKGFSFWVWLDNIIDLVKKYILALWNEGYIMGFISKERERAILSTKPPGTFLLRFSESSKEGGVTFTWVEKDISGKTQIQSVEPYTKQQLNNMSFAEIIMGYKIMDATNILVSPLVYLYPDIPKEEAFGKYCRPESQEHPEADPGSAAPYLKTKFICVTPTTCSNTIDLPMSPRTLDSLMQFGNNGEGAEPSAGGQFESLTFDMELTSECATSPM
The assay can be described thus: STAT3 reporter gene assay (luciferase), LNCaP stable cell line (pSTAT3-TA-luc), IL-6 stimulation. An outline of the steps:
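LNCaP cells stably carrying pSTAT3-TA-luc, in RPMI1640 with 3% DCC-FBS, were treated with compound and then stimulated with 10 ng/mL IL-6 for 24–48 h at 37 °C. Luciferase activity was measured in lysates. A parallel plate measured viability by CellTiter-Glo, with stimulated 0.1% DMSO wells as the positive control.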

The next assay relates to DU-145. Description: Cell growth inhibition assay, prostate cancer cell line DU-145. To be noted: Homo sapiens, DU-145 prostate cancer cell line. An outline of the steps:
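Cancer cells, counted and seeded at 3,000 (DU-145, HCT116) or 5,000 (SW626) cells/well, received graded compound concentrations. Plates incubated 72–96 h at 37° C. with 5% CO2 were then assayed with CellTiter-Glo.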

In general, IC50 refers to the concentration that gives 50% inhibition. `CC(C)(c1ccc(F)cc1)c1cccc(NC(=O)c2cc3ccc(NS(C)(=O)=O)cc3[nH]2)c1` [Example 1, N-(3-(2-(4-fluorophenyl)propan-2-yl)phenyl)-6-(methylsulfonamido)-1H-indole-2-carboxamide]: the IC50 was 2.5 µM with LNCaP, 0.23 µM in the assay with MDA-MB-231 and 0.19 µM against STAT3.
Consider `CS(=O)(=O)Nc1cc2cc(C(=O)Nc3cc(Cl)cc(Oc4nccs4)c3)sc2cc1Cl` [Example 471, 6-chloro-N-(3-chloro-5-(thiazol-2-yloxy)phenyl)-5-(methylsulfonamido)benzo[b]thiophene-2-carboxamide], for which the IC50 with LNCaP worked out at 0.11 µM; in the assay on DU-145, 0.049 µM; at STAT3, 0.075 µM.
For the compound `CS(=O)(=O)Nc1cc2cc(C(=O)Nc3cc(Cl)cc(Oc4cncs4)c3)sc2cc1Cl` [Example 472, 6-chloro-N-(3-chloro-5-(thiazol-5-yloxy)phenyl)-5-(methylsulfonamido)benzo[b]thiophene-2-carboxamide], the IC50 in the assay with LNCaP was 0.37 µM; in the assay on DU-145 it was 0.13 µM; on STAT3, 0.1 µM.
As to `CS(=O)(=O)Nc1cc2cc(C(=O)Nc3cc(Cl)cc(Oc4ccc(Cl)s4)c3)sc2cc1Cl` [Example 473, 6-chloro-N-(3-chloro-5-((5-chlorothiophen-2-yl)oxy)phenyl)-5-(methylsulfonamido)benzo[b]thiophene-2-carboxamide], the IC50 came to 0.015 µM in the assay with LNCaP, 0.015 µM with DU-145 and 0.1 µM against STAT3.
On to `COc1cc(Cl)cc(Oc2cc(Cl)cc(NC(=O)c3cc4cc(NS(C)(=O)=O)c(Cl)cc4s3)c2)c1` [Example 474, 6-chloro-N-(3-chloro-5-(3-chloro-5-methoxyphenoxy)phenyl)-5-(methylsulfonamido)benzo[b]thiophene-2-carboxamide], for which the IC50 was found to be 0.059 µM in the assay with LNCaP, 0.022 µM in the assay with DU-145 and 0.048 µM against STAT3.
Consider `CS(=O)(=O)Nc1cc2cc(C(=O)Nc3cc(Cl)cc(Oc4cc(O)cc(Cl)c4)c3)sc2cc1Cl` [Example 475, 6-chloro-N-(3-chloro-5-(3-chloro-5-hydroxyphenoxy)phenyl)-5-(methylsulfonamido)benzo[b]thiophene-2-carboxamide], for which the IC50 is above 1.1 µM in the assay with LNCaP, above 1.1 µM in the assay on DU-145 and above 10 µM against STAT3.
Consider `CS(=O)(=O)Nc1cc2cc(C(=O)Nc3cc(Cl)cc(Oc4ccc(F)c(Cl)c4)c3)sc2cc1Cl` [Example 476, 6-chloro-N-(3-chloro-5-(3-chloro-4-fluorophenoxy)phenyl)-5-(methylsulfonamido)benzo[b]thiophene-2-carboxamide], for which the IC50 stood at 0.022 µM with LNCaP, 0.005 µM with DU-145 and 0.021 µM against STAT3.
Consider `CS(=O)(=O)Nc1cc2cc(C(=O)Nc3cc(Cl)cc(Oc4ccc(Cl)c(F)c4)c3)sc2cc1Cl` [Example 477, 6-chloro-N-(3-chloro-5-(4-chloro-3-fluorophenoxy)phenyl)-5-(methylsulfonamido)benzo[b]thiophene-2-carboxamide], for which the IC50 in the assay on LNCaP was determined as 0.013 µM; in the assay on DU-145, 0.01 µM; at STAT3, 0.025 µM.
With `CS(=O)(=O)Nc1cc2cc(C(=O)Nc3cc(Cl)cc(Oc4ccc(F)cc4)c3)sc2cc1Cl` [Example 478, 6-chloro-N-(3-chloro-5-(4-fluorophenoxy)phenyl)-5-(methylsulfonamido)benzo[b]thiophene-2-carboxamide], the concentration for half-maximal inhibition (IC50) stood at 0.018 µM in the assay with LNCaP, 0.012 µM in the assay with DU-145 and 0.022 µM against STAT3.
Take `CS(=O)(=O)Nc1cc2cc(C(=O)Nc3cc(Cl)cc(Oc4cccc(OC(F)(F)F)c4)c3)sc2cc1Cl` [Example 479, 6-chloro-N-(3-chloro-5-(3-(trifluoromethoxy)phenoxy)phenyl)-5-(methylsulfonamido)benzo[b]thiophene-2-carboxamide]: the IC50 came to 0.008 µM with LNCaP, 0.006 µM in the assay with DU-145 and 0.014 µM at STAT3.
Take `CS(=O)(=O)Nc1cc2cc(C(=O)Nc3cc(Cl)cc(Oc4ccc(OC(F)(F)F)cc4)c3)sc2cc1Cl` [Example 480, 6-chloro-N-(3-chloro-5-(4-(trifluoromethoxy)phenoxy)phenyl)-5-(methylsulfonamido)benzo[b]thiophene-2-carboxamide]: the IC50 in the assay with LNCaP was 0.01 µM; in the assay on DU-145 it was 0.007 µM; at STAT3 it was 0.019 µM.
Regarding `CS(=O)(=O)Nc1cc2cc(C(=O)Nc3cc(Cl)cc(Oc4ccc(F)c(F)c4)c3)sc2cc1Cl` [Example 481, 6-chloro-N-(3-chloro-5-(3,4-difluorophenoxy)phenyl)-5-(methylsulfonamido)benzo[b]thiophene-2-carboxamide], the IC50 in the assay on LNCaP is 0.036 µM; in the assay on DU-145, 0.008 µM; against STAT3, 0.015 µM.
Consider `CS(=O)(=O)Nc1cc2cc(C(=O)Nc3cc(Cl)cc(Oc4ccc(C(F)(F)F)cc4)c3)sc2cc1Cl` [Example 482, 6-chloro-N-(3-chloro-5-(4-(trifluoromethyl)phenoxy)phenyl)-5-(methylsulfonamido)benzo[b]thiophene-2-carboxamide], for which the half-maximal inhibitory concentration (IC50) in the assay on LNCaP worked out at 0.013 µM; with DU-145, 0.005 µM; against STAT3, 0.016 µM.
As for `CS(=O)(=O)Nc1cc2cc(C(=O)Nc3cc(Cl)cc(Oc4cc(F)cc(Cl)c4)c3)sc2cc1Cl` [Example 483, 6-chloro-N-(3-chloro-5-(3-chloro-5-fluorophenoxy)phenyl)-5-(methylsulfonamido)benzo[b]thiophene-2-carboxamide], the IC50 came out at 0.02 µM in the assay on LNCaP, 0.01 µM with DU-145 and 0.014 µM on STAT3.
As to `COc1cc(F)cc(Oc2cc(Cl)cc(NC(=O)c3cc4cc(NS(C)(=O)=O)c(Cl)cc4s3)c2)c1` [Example 484, 6-chloro-N-(3-chloro-5-(3-fluoro-5-methoxyphenoxy)phenyl)-5-(methylsulfonamido)benzo[b]thiophene-2-carboxamide], the 50% inhibitory concentration (IC50) stood at 0.037 µM with LNCaP, 0.021 µM with DU-145 and 0.021 µM on STAT3.
Take `CS(=O)(=O)Nc1cc2sc(C(=O)Nc3cc(Cl)cc(Oc4ccc(Cl)cc4)c3)cc2cc1Cl` [Example 485, 5-chloro-N-(3-chloro-5-(4-chlorophenoxy)phenyl)-6-(methylsulfonamido)benzo[b]thiophene-2-carboxamide]: the IC50 was above 1.1 µM in the assay on LNCaP, 0.38 µM in the assay with DU-145 and 0.129 µM at STAT3.
Turning to `CS(=O)(=O)Nc1cc2cc(C(=O)Nc3cc(Cl)cc(OC4CCCCC4)c3)sc2cc1Cl` [Example 486, 6-chloro-N-(3-chloro-5-(cyclohexyloxy)phenyl)-5-(methylsulfonamido)benzo[b]thiophene-2-carboxamide], the results for the IC50 in the assay on LNCaP, in the assay with DU-145 and at STAT3 were 0.083 µM, 0.048 µM and 0.11 µM, respectively.
As to `Cc1ccc(Oc2cc(Cl)cc(NC(=O)c3cc4cc(NS(C)(=O)=O)c(Cl)cc4s3)c2)s1` [Example 487, 6-chloro-N-(3-chloro-5-((5-methylthiophen-2-yl)oxy)phenyl)-5-(methylsulfonamido)benzo[b]thiophene-2-carboxamide], the values for the IC50 in the assay with LNCaP, with DU-145 and against STAT3 were 0.036 µM, 0.025 µM and 0.059 µM, respectively.
Consider `Cc1cc(OC(C)C)cc(C(C)(C)c2cc(Cl)cc(NC(=O)c3cc4c(Br)c(NS(C)(=O)=O)ccc4s3)c2)c1` [Example 488, 4-bromo-N-(3-chloro-5-(2-(3-isopropoxy-5-methylphenyl)propan-2-yl)phenyl)-5-(methylsulfonamido)benzo[b]thiophene-2-carboxamide], for which the IC50 came to 2.5 µM with LNCaP, 1.1 µM in the assay with DU-145 and 0.35 µM against STAT3.
As for `CS(=O)(=O)Nc1ccc2sc(C(=O)Nc3cc(Cl)nc(Oc4ccc(Cl)cc4)c3)cc2c1` [Example 489, N-(2-chloro-6-(4-chlorophenoxy)pyridin-4-yl)-5-(methylsulfonamido)benzo[b]thiophene-2-carboxamide], the values for the IC50 with LNCaP, in the assay with DU-145 and on STAT3 were 0.11 µM, 0.031 µM and 0.11 µM, respectively.
